Source: patent US20090143285A1, “TARGET PROTEIN AND TARGET GENE FOR DRUG DISCOVERY AND SCREENING METHOD” (REVERSE PROTEOMICS RESEARCH INSTITUTE CO., LTD., priority 2005, published 2009)
“Also recorded” adds a separate entry of the source. Where two headings read alike, the source gives them in different places.

Legend:
FLJ38531-derived protein = target: T1, FLJ38531-derived protein (Homo sapiens, UniProt Q9BVM4); assay: SEC/MS interaction analysis, FLJ38531-derived protein (hypothetical protein BC004360); assay type: binding; settings: spin column method; doses of both compound and protein varied
T1 construct: His-tag (N); made in house; host or cells: Escherichia coli BL21star(DE3)pLysS
T1 sequence (Q9BVM4 1-153): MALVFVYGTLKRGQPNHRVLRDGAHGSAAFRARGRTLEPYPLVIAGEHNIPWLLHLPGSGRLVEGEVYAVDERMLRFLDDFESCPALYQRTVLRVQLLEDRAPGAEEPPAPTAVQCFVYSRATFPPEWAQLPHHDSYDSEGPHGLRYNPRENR
From the text: (§1) To analyze the interactions between commonly used drugs and proteins expressed from human full-length cDNA clones while keeping both the proteins and the compounds in non-modified, non-immobilized state, size exclusion chromatography (SEC) and mass analysis were used in combination. The specific procedures are shown below.
(§2) The compound-protein mixture prepared in step 1 was subjected to chromatography using an SEC column, the compound and the protein were separated by SEC, and the compound that interacted with the bound compound or protein contained in the protein fraction was analyzed using a mass analyzer.
(§3) Protein concentrations were measured using BCA Protein Assay (PIERCE), in consideration of the purity calculated by SDS-PAGE.
(§4) Mass analysis was performed using LCQ DECA XP (Thermoelectron) or Q-TOF micro (Micromass), equipped with an ESI probe. The LC pump used was Agilent 1100 (Yokogawa Analytical Systems), and the autosampler used was HTC-PAL (CTC Analytics) equipped with a cooling stacker. The SEC column used was a micro-LC column or a 384-well spin column. […]
(§5) In the 384-well spin column method, Unifilter 100 (Whatman), packed with 10 μL (dry volume) of Bio-Gel P6 (BIO-RAD) and swollen with milliQ water, was used as the SEC column. […] The SEC spin column was mounted on an acetonitrile-aliquoted 384-well U-bottom plate and centrifuged; the SEC spin column filtrate, which is a protein fraction, was recovered in 50% acetonitrile. The protein precipitate produced by the acetonitrile was removed via centrifugation and filtration for deproteinization; the resulting filtrate was concentrated by centrifugal concentration and re-dissolved in 10 μL of 50% methanol to obtain a mass analysis sample. The mobile phase supplied to the mass analyzer was 0.1% formic acid/50% methanol solution in the positive ion mode, and 0.1% ammonia/50% methanol solution in the negative ion mode; these mobile phases were used at a flow rate of 40 μL/min. 2-μL of mass analysis samples were injected using an autosampler at 2-minute intervals; the mass spectral intensity of the compound was measured to retrieve the spectral intensity of the pharmaceutical compound contained in the SEC spin column filtrate (protein fraction eluted from SEC).

[1] = system: FLJXXXXX-derived proteins; assay: SEC/MS spin column interaction analysis of FLJXXXXX-derived proteins and various compounds (Tables 30-1 to 30-4); assay type: binding, human
FLJ10420-derived protein = target: T2, FLJ10420-derived protein (Homo sapiens, UniProt Q9NVZ3, T157A); assay: SEC/MS interaction analysis, FLJ10420-derived protein (hypothetical protein FLJ10420); assay type: binding
T2 construct: His-tag (N); made in house; host or cells: Escherichia coli BL21star(DE3)pLysS
T2 sequence (Q9NVZ3 1-263 T157A): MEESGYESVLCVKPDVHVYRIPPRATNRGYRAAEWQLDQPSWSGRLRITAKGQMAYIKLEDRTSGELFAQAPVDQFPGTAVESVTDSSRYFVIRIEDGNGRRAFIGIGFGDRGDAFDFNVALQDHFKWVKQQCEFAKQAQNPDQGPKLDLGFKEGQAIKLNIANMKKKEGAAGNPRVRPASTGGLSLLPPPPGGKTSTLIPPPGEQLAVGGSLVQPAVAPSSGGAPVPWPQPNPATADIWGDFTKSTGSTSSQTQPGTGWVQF
From the text: as §1, §2, §3, §4, §5

FLJ41991-derived protein = target: T3, FLJ41991-derived protein (Homo sapiens, UniProt P57764, E293G); assay: SEC/MS interaction analysis, FLJ41991-derived protein (GSDMDC1); assay type: binding
T3 construct: His-tag (N); made in house; host or cells: Escherichia coli BL21star(DE3)pLysS (pDEST17)
T3 sequence (P57764 265-484 E293G): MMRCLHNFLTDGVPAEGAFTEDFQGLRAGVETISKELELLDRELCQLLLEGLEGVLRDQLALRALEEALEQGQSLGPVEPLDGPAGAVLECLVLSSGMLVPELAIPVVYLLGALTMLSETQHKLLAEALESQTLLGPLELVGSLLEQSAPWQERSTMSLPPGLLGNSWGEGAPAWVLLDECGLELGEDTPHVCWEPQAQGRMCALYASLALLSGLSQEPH
From the text: as §1, §2, §3, §4, §5

[2] = SEC spin column filtrate, spectral intensity increased with doses of compound and protein
[3] = compound 12.5 μM, protein 10 μM
[4] = compound 62.5 μM, protein 10 μM
[5] = spin column method, doses of both compound and protein varied

CCn1cc(C(=O)O)c(=O)c2ccc(C)nc21 [nalidixic acid]
interaction judged from spectrum intensity of the compound in the SEC spin column filtrate (protein fraction eluted from SEC) (FLJ38531-derived protein): concentration-dependent interaction | FLJ No of the derived protein with which the compound was judged to exhibit a concentration-dependent interaction [1, 2]: FLJ38531

CC(=O)CCCCn1c(=O)c2c(ncn2C)n(C)c1=O [pentoxifylline]
FLJ No of the derived protein with which the compound was judged to exhibit a concentration-dependent interaction [1, 2]: FLJ35353

COc1ccc(C(=O)NCc2cccnc2)cc1C(=O)NCc1cccnc1 [picotamide]
spectrum intensity of the compound in the SEC spin column filtrate (FLJ10420-derived protein; compound 12.5 μM, protein 0 μM): 412892 | spectrum intensity of the compound in the SEC spin column filtrate (FLJ10420-derived protein; compound 12.5 μM, protein 5 μM): 323916 | spectrum intensity of the compound in the SEC spin column filtrate (FLJ10420-derived protein; [3]): 294069 | spectrum intensity of the compound in the SEC spin column filtrate (FLJ10420-derived protein; compound 12.5 μM, protein 15 μM): 237571 | spectrum intensity of the compound in the SEC spin column filtrate (FLJ10420-derived protein; compound 25 μM, protein 0 μM): 441470 | spectrum intensity of the compound in the SEC spin column filtrate (FLJ10420-derived protein; compound 25 μM, protein 5 μM): 490309 | spectrum intensity of the compound in the SEC spin column filtrate (FLJ10420-derived protein; compound 25 μM, protein 10 μM): 647010 | spectrum intensity of the compound in the SEC spin column filtrate (FLJ10420-derived protein; compound 25 μM, protein 15 μM): 496587 | spectrum intensity of the compound in the SEC spin column filtrate (FLJ10420-derived protein; compound 62.5 μM, protein 0 μM): 841101 | spectrum intensity of the compound in the SEC spin column filtrate (FLJ10420-derived protein; compound 62.5 μM, protein 5 μM): 1376939 | spectrum intensity of the compound in the SEC spin column filtrate (FLJ10420-derived protein; [4]): 1450464 | spectrum intensity of the compound in the SEC spin column filtrate (FLJ10420-derived protein; compound 62.5 μM, protein 15 μM): 1862334 | interaction judged from spectrum intensity of the compound in the SEC spin column filtrate (protein fraction eluted from SEC) (FLJ10420-derived protein; [5]): concentration-dependent interaction | FLJ No of the derived protein with which the compound was judged to exhibit a concentration-dependent interaction [1, 2]: FLJ10420

CC(N/C(=N\C#N)Nc1ccncc1)C(C)(C)C (centres unmarked) [pinacidil]
FLJ No of the derived protein with which the compound was judged to exhibit a concentration-dependent interaction [1, 2]: FLJ35353

CNCCCC1c2ccccc2C=Cc2ccccc21 [protriptyline.]
FLJ No of the derived protein with which the compound was judged to exhibit a concentration-dependent interaction [1, 2]: FLJ20972

CCN(CC)CCCC(C)Nc1c2ccc(Cl)cc2nc2ccc(OC)cc12 (centres unmarked) [quinacrine]
spectrum intensity of the compound in the SEC spin column filtrate (FLJ41991-derived protein; compound 12.5 μM, protein 0 μM): 36421 | spectrum intensity of the compound in the SEC spin column filtrate (FLJ41991-derived protein; compound 12.5 μM, protein 5 μM): 77607 | spectrum intensity of the compound in the SEC spin column filtrate (FLJ41991-derived protein; [3]): 225680 | spectrum intensity of the compound in the SEC spin column filtrate (FLJ41991-derived protein; compound 12.5 μM, protein 25 μM): 439131 | spectrum intensity of the compound in the SEC spin column filtrate (FLJ41991-derived protein; compound 25 μM, protein 0 μM): 40978 | spectrum intensity of the compound in the SEC spin column filtrate (FLJ41991-derived protein; compound 25 μM, protein 5 μM): 125609 | spectrum intensity of the compound in the SEC spin column filtrate (FLJ41991-derived protein; compound 25 μM, protein 10 μM): 481486 | spectrum intensity of the compound in the SEC spin column filtrate (FLJ41991-derived protein; compound 25 μM, protein 25 μM): 457713 | spectrum intensity of the compound in the SEC spin column filtrate (FLJ41991-derived protein; compound 62.5 μM, protein 0 μM): 123977 | spectrum intensity of the compound in the SEC spin column filtrate (FLJ41991-derived protein; compound 62.5 μM, protein 5 μM): 598920 | spectrum intensity of the compound in the SEC spin column filtrate (FLJ41991-derived protein; [4]): 1080431 | spectrum intensity of the compound in the SEC spin column filtrate (FLJ41991-derived protein; compound 62.5 μM, protein 25 μM): 1854355 | interaction judged from spectrum intensity of the compound in the SEC spin column filtrate (protein fraction eluted from SEC) (FLJ41991-derived protein; [5]): concentration-dependent interaction | FLJ No of the derived protein with which the compound was judged to exhibit a concentration-dependent interaction [1, 2]: FLJ37909; also recorded: FLJ41991

COC(=O)[C@H]1[C@H]2C[C@@H]3c4[nH]c5cc(OC)ccc5c4CCN3C[C@H]2C[C@@H](OC(=O)/C=C/c2cc(OC)c(OC)c(OC)c2)[C@@H]1OC [rescinnamine]
FLJ No of the derived protein with which the compound was judged to exhibit a concentration-dependent interaction [1, 2]: FLJ37909

COC(=O)[C@H]1[C@H]2C[C@@H]3c4[nH]c5cc(OC)ccc5c4CCN3C[C@H]2C[C@@H](OC(=O)c2cc(OC)c(OC)c(OC)c2)[C@@H]1OC [reserpine]
FLJ No of the derived protein with which the compound was judged to exhibit a concentration-dependent interaction [1, 2]: FLJ37909

COc1cccc(CCc2ccccc2OCC(CN(C)C)OC(=O)CCC(=O)O)c1 (centres unmarked) [sarpogrelate]
FLJ No of the derived protein with which the compound was judged to exhibit a concentration-dependent interaction [1, 2]: FLJ39553

C[C@@H]1CC[C@@]2(NC1)O[C@H]1C[C@H]3[C@@H]4CC=C5C[C@@H](O)CC[C@]5(C)[C@H]4CC[C@]3(C)[C@H]1[C@@H]2C [solasodine]
FLJ No of the derived protein with which the compound was judged to exhibit a concentration-dependent interaction [1, 2]: FLJ35353

COc1cc(NS(=O)(=O)c2ccc(N)cc2)nc(OC)n1 [sulfadimethoxine]
FLJ No of the derived protein with which the compound was judged to exhibit a concentration-dependent interaction [1, 2]: FLJ39553

CCOC(=O)Oc1c(OC)cc(C(=O)O[C@@H]2C[C@@H]3CN4CCc5c([nH]c6cc(OC)ccc56)[C@H]4C[C@@H]3[C@H](C(=O)OC)[C@H]2OC)cc1OC [syrosingopine]
FLJ No of the derived protein with which the compound was judged to exhibit a concentration-dependent interaction [1, 2]: FLJ35353

CC/C(=C(\c1ccccc1)c1ccc(OCCN(C)C)cc1)c1ccccc1 [tamoxifen]
FLJ No of the derived protein with which the compound was judged to exhibit a concentration-dependent interaction [1, 2]: FLJ37909

c1ccc2c(c1)CCCC2C1=NCCN1 (centres unmarked) [tetrazoline]
FLJ No of the derived protein with which the compound was judged to exhibit a concentration-dependent interaction [1, 2]: FLJ36526

CSc1ccc2c(c1)N(CCC1CCCCN1C)c1ccccc1S2 (centres unmarked) [thioridazine]
FLJ No of the derived protein with which the compound was judged to exhibit a concentration-dependent interaction [1, 2]: FLJ37909

CN1CCN(CC/C=C2/c3ccccc3Sc3ccc(S(=O)(=O)N(C)C)cc32)CC1 [thiothixene (cis), thiothixene]
FLJ No of the derived protein with which the compound was judged to exhibit a concentration-dependent interaction [1, 2]: FLJ37909 | FLJ No of the derived protein with which the compound was judged to exhibit a concentration-dependent interaction ([1]; SEC spin column filtrate, spectral intensity increased with doses of compound and protein, listed as Thiothixene (cis)): FLJ35353

C[C@H]1CC[C@]2(NC1)O[C@H]1C[C@H]3[C@@H]4CC[C@H]5C[C@@H](O)CC[C@]5(C)[C@H]4CC[C@]3(C)[C@H]1[C@@H]2C [tomatidine]
FLJ No of the derived protein with which the compound was judged to exhibit a concentration-dependent interaction [1, 2]: FLJ35353

CC(C)C[C@H]1C(=O)N2CCC[C@H]2[C@]2(O)O[C@](NC(=O)[C@@H]3C=C4c5cccc6[nH]cc(c56)C[C@H]4N(C)C3)(C(C)C)C(=O)N12 [α-ergocryptine]
FLJ No of the derived protein with which the compound was judged to exhibit a concentration-dependent interaction [1, 2]: FLJ35353

celestine blue
FLJ No of the derived protein with which the compound was judged to exhibit a concentration-dependent interaction [1, 2]: FLJ39553

cyclosporin A
FLJ No of the derived protein with which the compound was judged to exhibit a concentration-dependent interaction [1]: FLJ23466; also recorded: FLJ11211; also recorded: FLJ37909

eburnamonine
FLJ No of the derived protein with which the compound was judged to exhibit a concentration-dependent interaction [1, 2]: FLJ11211

spiramycin
FLJ No of the derived protein with which the compound was judged to exhibit a concentration-dependent interaction [1, 2]: FLJ21841
